Source: the supplement of paper PMC11208160

Experiment: recombinant UMI read abundance after kanamycin selection (control-corrected) (log10(CPM+1)); higher = more efficient recombination; extreme values may be limits of the assay; sequences stand for … in AGTGCAGAGAAAATCGGCCAGTTTTCTCTGCCTGCAGTCCGCATGCCGTGGGACCCCTTGGGTTCTAACCTGTTGCCTAGATTTATGCAGCGGACTGCCTTTCTCCCAAAGTGATAAACCGG…AGGTTGGTTTCACT; site = the 11-nt donor
Summary of the method: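 Counts of recombinant UMIs were reported as log10(CPM+1). Before that, they were converted to CPM, averaged over replicates and scaled using control-derived factors. They came from PCR across the donor–target junction after Escherichia coli carrying the pair library and target plasmid was plated on IPTG (0.07 mM) plus kanamycin, or unselected, in two replicates each.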
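Note: IS621 bridge recombinase in Escherichia coli cells against a fixed T5 target plasmid.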

Row | Sequence | recombinant UMI read abundance (log10)
1 | CCCGGTCCATGGACCGGTTTTCCCGGTAATCCGTATTTGCA (site CCTGGTCCTTG) | 0.00597
2 | AGTGGAACATGGACCGGTTTTCCCGGTAATCCGTATTTGTT (site CGTGGAACTAA) | 0.295
3 | TGTATACCATGGACCGGTTTTCCCGGTAATCCGTATTTGAC (site TGTAAACCTGT) | 0
4 | CCTGGTTCATGGACCGGTTTTCCCGGTAATCCGTATTTGAC (site CCTGGTTCTGT) | 0
5 | GTGGAGGCATGGACCGGTTTTCCCGGTAATCCGTATTTGGG (site GTGGAGGCTCC) | 0.954
6 | GCAAAAACATGGACCGGTTTTCCCGGTAATCCGTATTTGCT (site GCCAAAACTAG) | 0
7 | CCGATTCCATGGACCGGTTTTCCCGGTAATCCGTATTTGTT (site CGGAATCCTAA) | 0.00507
8 | TCTTACGCATGGACCGGTTTTCCCGGTAATCCGTATTTGGC (site TCTTACGCTGC) | 0
9 | GCCAAACCATGGACCGGTTTTCCCGGTAATCCGTATTTGGT (site GCCAAACCTAC) | 0
10 | CAACTAGCATGGACCGGTTTTCCCGGTAATCCGTATTTGCA (site CAACTAGCTTG) | 1.13
11 | ACTAGTGCATGGACCGGTTTTCCCGGTAATCCGTATTTGGT (site ACTAGTGCTCC) | 0.0239
12 | AGATAGGCATGGACCGGTTTTCCCGGTAATCCGTATTTGTA (site AGATAGGCTTA) | 2.52
13 | CTTCTCTCATGGACCGGTTTTCCCGGTAATCCGTATTTGAA (site CTTCTCTCTTA) | 0
14 | GGCGTGGCATGGACCGGTTTTCCCGGTAATCCGTATTTGCA (site GGCGTGGCTTG) | 2.55
15 | TCCATTTCATGGACCGGTTTTCCCGGTAATCCGTATTTGCC (site TCCAATTCTGG) | 0
16 | CCGTTAGCATGGACCGGTTTTCCCGGTAATCCGTATTTGTG (site CAGTTAGCTCA) | 0.00951
17 | TGCCAGGCATGGACCGGTTTTCCCGGTAATCCGTATTTGTC (site TGCCAGGCTGA) | 0
18 | CGCCGTACATGGACCGGTTTTCCCGGTAATCCGTATTTGCG (site CGCCGTACTTG) | 0.00693
19 | ATTGAGACATGGACCGGTTTTCCCGGTAATCCGTATTTGGG (site ATTGAGACTTC) | 0.0235
20 | AATTATTCATGGACCGGTTTTCCCGGTAATCCGTATTTGGA (site AATTATTCTTC) | 2.28
21 | TAGCTGACATGGACCGGTTTTCCCGGTAATCCGTATTTGCG (site TAGCTGACTCG) | 1.5
22 | GGATAGCCATGGACCGGTTTTCCCGGTAATCCGTATTTGAG (site GGATAGCCTCT) | 0.00752
23 | CCTAATACATGGACCGGTTTTCCCGGTAATCCGTATTTGCC (site CCTAATACTGG) | 0
24 | ATAGTATCATGGACCGGTTTTCCCGGTAATCCGTATTTGAA (site ATAGTATCTTT) | 3.09
25 | CGGTCATCATGGACCGGTTTTCCCGGTAATCCGTATTTGCT (site CGGCCATCTAG) | 2.29

Row | Sequence | recombinant UMI read abundance (log10)
26 | TGCATTCCATGGACCGGTTTTCCCGGTAATCCGTATTTGTT (site TGCATTCCTAA) | 0
27 | TGCACCGCATGGACCGGTTTTCCCGGTAATCCGTATTTGCG (site TTCACCGCTCG) | 0.00682
28 | CCAGGTGCATGGACCGGTTTTCCCGGTAATCCGTATTTGAT (site CCAGGTGCTCT) | 0.00956
29 | TTATGAGCATGGACCGGTTTTCCCGGTAATCCGTATTTGTC (site TTATGAGCTGA) | 2.45
30 | CCACGTGCATGGACCGGTTTTCCCGGTAATCCGTATTTGAT (site CCAGGTGCTAT) | 0.0128
31 | GTAGTCACATGGACCGGTTTTCCCGGTAATCCGTATTTGCG (site GTAGTCTCTCG) | 2.62
32 | GCCAATCCATGGACCGGTTTTCCCGGTAATCCGTATTTGAA (site GGCAATCCTTT) | 0
33 | TTCGTATCATGGACCGGTTTTCCCGGTAATCCGTATTTGAC (site CTAGTATCTGT) | 0
34 | AGGAAGACATGGACCGGTTTTCCCGGTAATCCGTATTTGCA (site TGGAAGACTTG) | 1.16
35 | CCCATCTCATGGACCGGTTTTCCCGGTAATCCGTATTTGGG (site CCCATCTCTCC) | 0
36 | CGACTATCATGGACCGGTTTTCCCGGTAATCCGTATTTGTG (site CGACTATCTCA) | 3.11
37 | AATTGTGCATGGACCGGTTTTCCCGGTAATCCGTATTTGGA (site AATTCTGCTTC) | 0.00901
38 | CACTCCACATGGACCGGTTTTCCCGGTAATCCGTATTTGCG (site CACTCCACTCG) | 1.09
39 | ACGGTATCATGGACCGGTTTTCCCGGTAATCCGTATTTGTA (site ACAGTATCTTG) | 2.09
40 | TGACTCACATGGACCGGTTTTCCCGGTAATCCGTATTTGAC (site TGACTCACTGT) | 2.68
41 | ACCGGTCCATGGACCGGTTTTCCCGGTAATCCGTATTTGCA (site TCCGGTCCTTG) | 0
42 | GGGGCCCCATGGACCGGTTTTCCCGGTAATCCGTATTTGCA (site GGGGCTCCTTG) | 0.0122
43 | GCACACCCATGGACCGGTTTTCCCGGTAATCCGTATTTGTT (site GCACACCCTAA) | 0.67
44 | TCCACCGCATGGACCGGTTTTCCCGGTAATCCGTATTTGCT (site TCCACCGCTTG) | 0
45 | ACAGTAGCATGGACCGGTTTTCCCGGTAATCCGTATTTGCA (site ACAGTACCTTG) | 0
46 | CGGAAGACATGGACCGGTTTTCCCGGTAATCCGTATTTGCA (site GGGAAGACTTG) | 0
47 | GCTGTGTCATGGACCGGTTTTCCCGGTAATCCGTATTTGCG (site GCTGTGTCTCG) | 2.07
48 | AACCTTCCATGGACCGGTTTTCCCGGTAATCCGTATTTGAA (site AACCTTCCTTT) | 0.0147
49 | CAAGAATCATGGACCGGTTTTCCCGGTAATCCGTATTTGAC (site CTAGTATCTGT) | 0.416
50 | ACAGAGACATGGACCGGTTTTCCCGGTAATCCGTATTTGCG (site GCAGAGACTCG) | 1.18

Row | Sequence | recombinant UMI read abundance (log10)
51 | CGGGGGTCATGGACCGGTTTTCCCGGTAATCCGTATTTGCC (site CGGGTGTCTGG) | 0.6
52 | TACGTGACATGGACCGGTTTTCCCGGTAATCCGTATTTGAC (site TACGTGACTGT) | 1.74
53 | GGTTTACCATGGACCGGTTTTCCCGGTAATCCGTATTTGGG (site GGTTTACCTCC) | 0.0308
54 | CAAGCACCATGGACCGGTTTTCCCGGTAATCCGTATTTGTG (site CAAGCACCTCA) | 0.018
55 | CATCAGTCATGGACCGGTTTTCCCGGTAATCCGTATTTGAT (site CATCAGTCTAT) | 2.04
56 | CGGACATCATGGACCGGTTTTCCCGGTAATCCGTATTTGCT (site CCGACATCTAG) | 0.954
57 | ATGAGGCCATGGACCGGTTTTCCCGGTAATCCGTATTTGAC (site ATTAGGCCTGT) | 0
58 | GTGGAGGCATGGACCGGTTTTCCCGGTAATCCGTATTTGAG (site GTGGAGGCTCA) | 0.00393
59 | CATGCCCCATGGACCGGTTTTCCCGGTAATCCGTATTTGGG (site CATGCCCCTCC) | 0.00831
60 | CTAGTACCATGGACCGGTTTTCCCGGTAATCCGTATTTGGC (site CTAGTATCTGT) | 1.63
61 | CGAGGACCATGGACCGGTTTTCCCGGTAATCCGTATTTGGG (site CGCGGACCTCC) | 0
62 | ACATCTCCATGGACCGGTTTTCCCGGTAATCCGTATTTGTG (site ACATCTACTCA) | 0.0166
63 | CATAGCCCATGGACCGGTTTTCCCGGTAATCCGTATTTGCC (site CATAGCCCTGG) | 0
64 | GTAGGAACATGGACCGGTTTTCCCGGTAATCCGTATTTGAC (site GTAGGAACTGT) | 2.59
65 | TTTGCTGCATGGACCGGTTTTCCCGGTAATCCGTATTTGCT (site TTTGCCGCTAG) | 0.0567
66 | GAGGTCACATGGACCGGTTTTCCCGGTAATCCGTATTTGAT (site GAGATCACTAT) | 1.36
67 | TCAGACTCATGGACCGGTTTTCCCGGTAATCCGTATTTGCA (site TCACACTCTTG) | 1.19
68 | CAGTAGACATGGACCGGTTTTCCCGGTAATCCGTATTTGGG (site CAGTAGACTCC) | 0.653
69 | GACTAACCATGGACCGGTTTTCCCGGTAATCCGTATTTGGT (site GACCAACCTAC) | 0.00701
70 | CCGTTTACATGGACCGGTTTTCCCGGTAATCCGTATTTGTT (site CCGTTTACTAC) | 0
71 | GCTACGCCATGGACCGGTTTTCCCGGTAATCCGTATTTGTA (site GCAACGCCTTA) | 0.00895
72 | CCAGGTGCATGGACCGGTTTTCCCGGTAATCCGTATTTGAT (site CCAGGTGCTAC) | 0.227
73 | GTAGGTACATGGACCGGTTTTCCCGGTAATCCGTATTTGAC (site GTACGTACTGT) | 0.584
74 | TTTCGCCCATGGACCGGTTTTCCCGGTAATCCGTATTTGTG (site TTTCGCCCTCA) | 0.0225
75 | CAACTATCATGGACCGGTTTTCCCGGTAATCCGTATTTGAT (site CAACTATCTAT) | 0.885
